Here are results for 2 compounds from US20140220154A1, “METHOD OF TREATING PATHOLOGIC HETEROTOPIC OSSIFICATION” (The United States of America, as represented by the …, priority 2011, published 2014).

For test [1], the system named is bone marrow mesenchymal cells (BMMC). In words: Osteoblastic differentiation of BMMC after removal of Gαs (Von Kossa, Alizarin red staining). Format: cell-based, mouse. As to conditions: osteogenic media 7 days. As to the method: FIG. 13: Removal of Gαs from bone marrow mesenchymal cells (BMMC) promotes osteoblastic differentiation, which is inhibited by Hh antagonist, GANT-58 treatment in a dose-dependent manner. BMMCs were isolated from Gαsflox/flox mice and infected with a Cre-containing adenovirus (ad-Cre) to remove Gαs or GFP-containing adenovirus (Ad-GFP) control. Cells were grown to confluence and placed in osteogenic media for 7 days. […] No effect of GANT-58 observed in Ad-GFP treated cells (panels c and e compared to a).
HO requires an inappropriate increase in bone forming cells (osteoblasts) The role of Gαs in promoting osteoblastic differentiation was tested. Bone marrow mesenchymal cells (BMMC) (also called mesenchymal stem cells) were isolated from Gαs^flox/flox mice. BMMC were isolated by flushing the bone marrow cavity of 6 week old mice and plating cells in Alpha-MEM, 20% FBS, 100 U/mL penicillin, 100 μg/mL streptomycin, 2 mM glutamine. Prior to reaching confluence cells were treated with a Cre- or GFP-containing adenovirus. Upon reaching confluence cells were switched to osteogenic media (DMEM, 10% lot-selected FBS, 100 U/mL penicillin, […] streptomycin, 2 mM glutamine, 10^-4M L-ascorbic acid 2-phosphate and 10 mM α-glycerol phosphate). These cells were infected with a Cre-containing adenovirus to remove Gαs and cultured under conditions that favor osteogenic differentiation. […]

For test [2], the system named is Prx1-cre+; Gαs^flox/− mice. In words: HO formation in vivo in Prx1-cre+; Gαs^flox/− pups from treated pregnant females (Alizarin Red-Alcian Blue staining). Details: species or system mouse. As to the method: FIG. 12: ATO inhibits HO formation in Prx1-cre+; Gαs^flox/− mice. Pregnant females were injected with either […] ATO or vehicle at E13.5, E15.5 and E17.5 and embryos were collected at E18.5. An Alizarin Red-Alcian Blue skeletal prep was performed to assay for the presence of HO between the digits.
Embryos were skinned and placed in 100% EtOH overnight to fix. Embryos were then placed in staining solution for 2 days (50 mL staining solution=2.5 mL 0.3% Alcian Blue, 2.5 mL 0.1% Alizarin Red, 2.5 mL 100% glacial acetic acid, 42.5 mL 70% EtOH). Embryos were rinsed with water, then placed in 1% KOH until destained, and finally in 80% glycerol for storage.
Inhibitors of Hh signaling were tested for an ability to inhibit the formation of HO in vivo. Matings were established between Prx1-cre+; Gαs^flox/− male and Gαs^flox/flox female mice. Pregnant females at gestational days E13.5, E15.5 and E17.5 were injected intraperitoneally with 5 mg/kg ATO. Pregnant mice are first weighed and then injected with care so as to avoid injection into uteri. Mice were sacrificed at E18.5, pups were collected, and stained for bone formation by Alizarin Red-Alcian Blue staining. Prx1-cre+; Gαs^flox/− pups from mice injected with vehicle control produced HO as evidenced by enhanced red staining in soft tissues. […]

Test [3] has as its system Hh pathway activation (Ptch1, Gli1, HIP). In words: Limb culture of E14.5 limbs with qRT-PCR for markers of Hh pathway activation. It is filed as cell-based. As to conditions: Prx1-cre+; Gαs^flox/− mouse limbs isolated at E14.5, cultured in vitro 4 days, 5 μM ATO vs vehicle. As to the method: FIG. 8: ATO inhibits elevated Hh signaling in Prx1-cre+; Gαs^flox/− mouse limbs. Control and Prx1-cre+; Gαs^flox/− mouse limbs were isolated at E14.5 and cultured in vitro for 4 days in the BGJB media containing vehicle or 5 μM ATO. Limbs were then collected, RNA isolated and qRT-PCR was performed for markers of Hh pathway activation (Ptch1, Gli1, HIP). In the absence of ATO, expression of these markers was elevated relative to control (6-fold, 5-fold and 17-fold, respectively).
The formation of HO indicated inappropriate upregulation of a pro-osteogenic pathway (e.g. BMP, Wnt, and/or hedgehog) outside the skeleton. As Gαs is a physiologically important activator of protein kinase A (PKA) and PKA is a potent inhibitor of Hedghehog (Hh) signaling (Jiang, et al., 1995, Cell 80, 563-572), loss of Gαs is likely associated with an upregulation of Hh that was driving HO formation. Accordingly, Hh signaling would be elevated prior to HO formation and overlap in its tissue expression. Quantitative reverse transcriptase polymerase chain reaction (qRT-PCR) was performed on RNA isolated from control and Prx1-cre+; Gαs^flox/− mutant limb tissue at E14.5, prior to HO formation. The following primers were used for qRT-PCR: […]
Relative expression was quantified using the […] method (Livak, et al., 2001, Methods 25, 402-08). […]

Entries after “also recorded” stand apart in the source; their conditions may differ.

Take `c1cc(-c2sc(-c3ccncc3)c(-c3ccncc3)c2-c2ccncc2)ccn1` [GANT-58]: the “tissue mineralization, Von Kossa staining” value in test [1] (Ad-Cre infected BMMC (Gαs removed)) is recorded as “inhibited by GANT-58 in a dose-dependent manner”. Besides, the “effect on mineralization in control cells, Von Kossa staining” value in test [1] (Ad-GFP treated BMMC (control)) is on record as “No effect”.

With arsenic trioxide [ATO], the “HO in forelimb and hind limb, Alizarin Red-Alcian Blue staining” value in test [2] (pregnant females injected intraperitoneally with 5 mg/kg ATO at E13.5, E15.5 and E17.5, pups collected at E18.5, vs vehicle control) was “significant reduction in HO”. In test [2] (pregnant females injected with 5 μg/kg ATO at E13.5, E15.5 and E17.5, embryos collected at E18.5, relative to vehicle), the “levels of HO in forelimbs and hind limbs, Alizarin Red-Alcian Blue skeletal prep” value is “reduced levels of HO”. The “expression of markers of Hh pathway activation (Ptch1, Gli1, HIP) by qRT-PCR” value in test [3] is recorded as “dramatic reduction in the Hh pathway activation; also recorded: significantly reduced”.
